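Five concentrations, 48 hours, 96-well plates. GI50 = concentration required for 50% inhibition of growth. The concentration for full growth arrest is given as TGI.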

Assay in all cases: NCI anticancer screen, dose series, 48 h
In assay [1] the test system is DU-145 prostate.
In assay [2] the test system is HL-60(TB) leukemia.
Assay [3] has as its system M14 melanoma.
For assay [4], the system named is MCF7 breast.
Assay [5] has as its system OVCAR-8 ovarian.
Assay [6] relates to RXF 393 renal.
The subject of assay [7] is SF-295 CNS.
Assay [8] concerns SF-539 CNS.
In assay [9] the test system is SW-620 colon.
For assay [10], the system named is U251 CNS.

Regarding `COc1ccc2c(c1)-c1nn(CCN(C)C)c3ccc(C(=O)NCCCN(C)CCCNC(=O)c4ccc5c6c(nn5CCN(C)C)-c5cc(OC)ccc5Nc46)c(c13)N2`, the TGI in assay [1] was found to be 0.952 µM; in assay [2] it was 2.63 µM; in [3] it was 1.33 µM; in [4] it was 1.97 µM; in [5], 0.977 µM; in assay [6], 0.499 µM. In addition, the TGI stood at 3.38 µM in assay [7], 1.56 µM in [8], 1.54 µM in [9] and 0.825 µM in assay [10].

Regarding `CCOC(=O)N(C)C1(c2ccccc2)CCN(CCCC(=O)c2ccc(F)cc2)CC1`, the TGI in assay [1] was greater than 100 µM; in assay [2] it was 79.1 µM; in [3], 32.1 µM; in assay [4], 85.2 µM; in [5], greater than 100 µM; in assay [6], greater than 100 µM. Further, the TGI was greater than 100 µM in assay [7], 65.7 µM in assay [8], 9.3 µM in assay [9] and greater than 100 µM in assay [10].

On to `CC(C)C(C/C=C1\CC(CO)(COC(=O)CC(C(C)C)C(C)C)OC1=O)C(C)C` (stereo not drawn), for which the TGI in assay [1] amounted to 22 µM; in [2] it was 18.8 µM; in assay [3], 24.6 µM; in assay [4], 31.3 µM; in assay [5], 33 µM; in assay [6], 28.4 µM. For the same molecule, the TGI in assay [7] was 20.2 µM; in [8], 33 µM; in assay [9], 21.6 µM; in assay [10] it was 29.4 µM.

Take `CC[C@@H]1CC[C@@H]2[C@H](CC[C@]3(C)[C@@H](OS(=O)(=O)c4ccc(C)cc4)CC[C@@H]23)[C@H]1CO`: the TGI in assay [1], in [2], in assay [3], in [4], in [5] and in [6] was greater than 100 µM in each case. Also, the TGI in [7], in [8], in [9] and in assay [10] was greater than 100 µM throughout.

Turning to `CCS(=O)(=O)c1c2cc(OC)ccc2nc2ccc(OC)cc12`, the TGI in [1], in assay [2], in assay [3], in [4], in assay [5] and in assay [6] was greater than 100 µM each time. Further, the TGI in [7], in [8], in assay [9] and in [10] was greater than 100 µM each time.

For `COc1ccc(C2(C3c4cc(OC)c(OC)cc4CCN3C)SCCCS2)cc1O` (stereo not drawn), the TGI in assay [1], in assay [2], in [3], in assay [4], in [5] and in [6] was greater than 100 µM throughout. For the same molecule, the TGI in assay [7], in [8], in [9] and in assay [10] was greater than 100 µM each time.

As to `CC(C)(C)c1cc(C2COC(=O)COCC(=O)OCCOCCOCCO2)cc(C(C)(C)C)c1O` (stereo not drawn), the TGI in assay [1] was 41.7 µM; in assay [2] it was greater than 31.6 µM; in assay [3], 41.3 µM; in assay [4] it was greater than 100 µM; in assay [5], greater than 100 µM; in assay [6], 41.3 µM. Also, the TGI is 58.5 µM in [7], greater than 79.7 µM in assay [8], greater than 100 µM in assay [9] and greater than 100 µM in [10].

As for `O=C(Nc1cccc(-n2ccc3c(NC(=O)c4ccccc4)nccc32)c1)c1cc(N2CCOCC2)cc(C(F)(F)F)c1`, the GI50 was 0.164 µM in assay [1]; 0.514 µM in assay [2]; 0.125 µM in assay [3]; 0.0332 µM in [4]; 0.286 µM in [5]; 0.0325 µM in [6]. Further, the GI50 in assay [7] was 0.039 µM; in assay [8] it was 0.0675 µM; in assay [9] it was 0.0484 µM; in assay [10], 0.118 µM. Further, the TGI was greater than 100 µM in assay [2]; greater than 100 µM in [4]; greater than 100 µM in assay [5]; 0.159 µM in assay [6]; 2.16 µM in [7]; 0.94 µM in assay [8]. The TGI in assay [9] and in assay [10] was greater than 100 µM throughout.

Turning to `COc1cc(C(SCc2ccccc2)SCc2ccccc2)ccc1O`, the TGI in assay [1], in assay [2], in assay [3], in [4], in assay [5] and in assay [6] was greater than 10 µM in each case. Moreover, the TGI in assay [7], in assay [8], in assay [9] and in assay [10] was greater than 10 µM throughout.

With `CC(=O)NC1=C(C)C(=O)c2c(nc3n2CC[C@H]3OC(C)=O)C1=O`, the TGI in [1] was determined as 29.4 µM; in [2], 8.97 µM; in assay [3], 4.01 µM; in [4], 3.37 µM; in assay [5], 6.75 µM; in assay [6], 3.12 µM. The TGI was determined as 5.49 µM in [7], 4.38 µM in assay [8], 3.26 µM in assay [9] and 3.22 µM in [10].

The values are drawn from PubChem BioAssay (NCI).
